Reference: patent publication US6399782B1, “Benzimidazole inhibitors of fructose 1,6-bisphosphatase” (Metabasis Therapeutics, Inc., priority 1997, dated 2002)

Tests used:
[1] = test system: Porcine heart AMPDA; assay: Adenosine monophosphate deaminase selectivity assay; type: biochemical; details: AMP deaminase vs hlFBPase
Description: (§1) To determine the selectivity of compounds towards FBPase, effects of FBPase inhibitors on 5 key AMP binding enzymes were measured using the assays described below:
Adenosine Monophosphate Deaminase: Porcine heart AMPDA was purified essentially as described by Smiley et al. (Smiley, K. L., Jr, Berry, A. J., and Suelter, C. H. (1967) J. Biol. Chem. 242, 2502-2506) through the phosphocellulose step. Inhibition of AMPDA activity was determined at 37° C. in a 0.1 mL assay mixture containing inhibitor, ˜0.005 U AMPDA, 0.1% bovine serum albumin, 10 mM ATP, 250 mM KCl, and 50 mM MOPS at pH 6.5. The concentration of the substrate AMP was varied from 0.125-10.0 mM. Catalysis was initiated by the addition of enzyme to the otherwise complete reaction mixture, and terminated after 5 minutes by injection into an HPLC system. Activities were determined from the amount of IMP formed during 5 minutes.

[2] = target: T1, Glycogen Phosphorylase (rabbit muscle) (Oryctolagus cuniculus, UniProt P00489); assay: Glycogen phosphorylase selectivity assay; type: biochemical; details: for EC50: Table 3 Selectivity, read-out: Glycogen Phosphorylase (act.); for effect on glycogen phosphorylase: result in words
T1 construct: Enzyme (rabbit muscle) was purchased from Sigma; purchased Sigma; host or cells: rabbit muscle
T1 sequence (P00489 2-843 limits assumed): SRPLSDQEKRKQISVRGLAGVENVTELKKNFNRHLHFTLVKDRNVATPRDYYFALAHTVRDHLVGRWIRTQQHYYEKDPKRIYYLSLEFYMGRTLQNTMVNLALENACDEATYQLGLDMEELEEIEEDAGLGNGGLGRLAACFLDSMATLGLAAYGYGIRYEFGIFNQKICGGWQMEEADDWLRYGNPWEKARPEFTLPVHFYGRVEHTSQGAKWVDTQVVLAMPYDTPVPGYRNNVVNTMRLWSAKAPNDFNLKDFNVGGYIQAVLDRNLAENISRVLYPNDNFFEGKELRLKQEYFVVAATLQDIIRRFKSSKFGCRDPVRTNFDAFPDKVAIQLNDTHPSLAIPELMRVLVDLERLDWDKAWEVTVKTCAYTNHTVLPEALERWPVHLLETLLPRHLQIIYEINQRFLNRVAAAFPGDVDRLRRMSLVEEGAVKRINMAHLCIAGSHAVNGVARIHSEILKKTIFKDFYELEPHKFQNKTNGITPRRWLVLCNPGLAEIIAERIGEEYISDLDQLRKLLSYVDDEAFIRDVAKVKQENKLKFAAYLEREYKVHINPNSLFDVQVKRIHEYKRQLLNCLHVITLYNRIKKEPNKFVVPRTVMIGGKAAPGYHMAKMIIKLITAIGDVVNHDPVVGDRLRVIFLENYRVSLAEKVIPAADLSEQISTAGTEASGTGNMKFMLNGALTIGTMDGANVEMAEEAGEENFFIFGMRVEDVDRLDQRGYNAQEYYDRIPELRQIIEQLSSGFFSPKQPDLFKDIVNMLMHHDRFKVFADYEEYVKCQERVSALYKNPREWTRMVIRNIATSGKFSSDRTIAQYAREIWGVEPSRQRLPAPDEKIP
Description: as §1
Glycogen Phosphorylase: Enzyme (rabbit muscle) was purchased from Sigma. Activity was measured at 37° C. in reactions in which the formation of glucose 1-phosphate was coupled to the reduction of NADP via phosphoglucomutase and glucose 6-phosphate dehydrogenase. Assays were performed on 96-well microtitre plates and were read at 340 nm on a Molecular Devices Microplate Reader. Reaction mixtures consisted of 20 mM imidazole, pH 7.4, 20 mM MgCl2, 150 mM potassium acetate, 5 mM potassium phosphate, 1 mM DTT, 1 mg/ml BSA, 0.1 mM NADP, 1 unit/mL phosphoglucomutase, 1 unit/mL glucose 6-phosphate dehydrogenase, 0.5% glycogen. Test compound concentrations ranged from 1 to 500 μM. Reactions were started by the addition of 17 μg enzyme and were monitored for 20 minutes.

[3] = target: T2, Adenylate Kinase (rabbit muscle) (Oryctolagus cuniculus, UniProt P00569); assay: Adenylate kinase selectivity assay; type: biochemical; details: for IC50: Table 3 Selectivity, read-out: Adenylate Kinase (inh.); for effect on adenylate kinase: result in words
T2 construct: Enzyme (rabbit muscle) was purchase from Sigma; purchased Sigma; host or cells: rabbit muscle
T2 sequence (P00569 1-194): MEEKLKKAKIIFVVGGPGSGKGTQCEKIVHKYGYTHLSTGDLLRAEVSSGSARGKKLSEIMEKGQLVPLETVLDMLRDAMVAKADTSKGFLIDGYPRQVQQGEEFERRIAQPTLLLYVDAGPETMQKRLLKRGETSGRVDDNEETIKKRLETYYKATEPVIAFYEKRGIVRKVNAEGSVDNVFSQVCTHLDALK
Description: as §1
Adenylate Kinase: Enzyme (rabbit muscle) was purchase from Sigma. Activity was measured at 37° C. in reaction mixtures (100 μL) containing 100 mM Hepes, pH 7.4, 45 mM MgCl2, 1 mM EGTA, 100 mM KCl, 2 mg/ml BSA, 1 mM AMP and 2 mM ATP. Reactions were started by addition of 4.4 ng enzyme and terminated after 5 minutes by addition of 17 μL perchloric acid. Precipitated protein was removed by centrifugation and the supernatant neutralized by addition of 33 μL 3 M KOH/3 M KH2CO3. The neutralized solution was clarified by centrifugation and filtration and analyzed for ADP content (enzyme activity) by HPLC using a YMC ODS AQ column (25×4.6 cm). A gradient was run from 0.1 M KH2PO4, pH 6, 8 mM tetrabutyl ammonium hydrogen sulfate to 75% acetonitrile. Absorbance was monitored at 254 nm.

[4] = test system: rat hepatocytes; assay: Inhibition of gluconeogenesis in rat hepatocytes; type: cell-based; details: for IC50: Hepatocyte, glucose production from lactate/pyruvate, isolated rat hepatocytes, 1 hour; for inhibition of glucose production in rat hepatocytes (FIG. 4): result in words
Description: Hepatocytes were prepared from overnight fasted Sprague-Dawley rats (250-300 g) according to the procedure of Berry and Friend (Berry, M. N., Friend, D. S., 1969, J. Cell. Biol. 43, 506-520) as modified by Groen (Groen, A. K., Sips, H. J., Vervoorn, R. C., Tager, J. M., 1982, Eur. J. Biochem. 122, 87-93). Hepatocytes (75 mg wet weight/mL) were incubated in 1 ml Krebs-bicarbonate buffer containing 10 mM Lactate, 1 mM pyruvate, 1 mg/mL BSA, and test compound concentrations from 1 to 500 μM. Incubations were carried out in a 95% oxygen, 5% carbon dioxide atmosphere in closed, 50-mL Falcon tubes submerged in a rapidly shaking water bath (37° C.). After 1 hour, an aliquot (0.25 mL) was removed, transferred to an Eppendorf tube and centrifuged. 50 μL of supernatant was then assayed for glucose content using a Sigma Glucose Oxidase kit as per the manufacturer's instructions.

| SMILES | half-maximal inhibition of AMP deaminase relative to IC50 for FBPase [1] | EC50 [2] | effect on glycogen phosphorylase [2] | IC50 [3] | effect on adenylate kinase [3] | IC50 [4] | inhibition of glucose production in rat hepatocytes (FIG. 4) [4] | activation of glycogen phosphorylase ([2]; concentrations of drug ranging from 5 to […]) |
| --- | --- | --- | --- | --- | --- | --- | --- | --- |
| CCn1c(-c2ccc(P(=O)(O)O)o2)nc2c(N)cccc21 [Compound 12.1, 4-Amino-1-ethyl-2-[2-(5-phosphono)furanyl]benzimidazole] | 42 fold | > 200 µM | essentially inactive | > 500 µM | essentially inactive | 110 µM | inhibit glucose production in vitro in rat hepatocytes |  |
| Nc1c(F)ccc2c1nc(-c1ccc(P(=O)(O)O)o1)n2CC1CC1 [Compound 12.61, 4-Amino-5-fluoro-1-cyclopropylmethyl-2-(2-phosphono-5-furanyl)benzimidazole] | ~600 fold | > 100 µM | essentially without effect | > 500 µM | essentially without effect | 3.3 µM | inhibit glucose production in vitro in rat hepatocytes |  |
| CCc1cc(F)c(N)c2nc(-c3ccc(P(=O)(O)O)o3)n(CC(C)C)c12 [Compound 12.64] |  | > 500 µM |  |  |  | 2.5 µM |  | no activation of the enzyme was observed |
